From patent EP4700036A1, “GLYCOLIPID DERIVATIVE AS MINCLE LIGAND” (The University of Osaka, priority 2023, dated 2024)

Molecular target: T1, bovine Mincle (Bos taurus, UniProt E1BHM0)
T1 construct: expressed in transfected cells
T1 sequence (E1BHM0 1-211): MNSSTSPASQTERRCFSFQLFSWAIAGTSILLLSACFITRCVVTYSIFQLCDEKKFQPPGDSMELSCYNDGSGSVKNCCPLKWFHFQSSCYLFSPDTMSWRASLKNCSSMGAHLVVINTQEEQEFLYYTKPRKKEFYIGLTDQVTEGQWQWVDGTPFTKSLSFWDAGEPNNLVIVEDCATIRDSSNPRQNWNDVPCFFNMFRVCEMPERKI
Assay: Mincle ligand activity, NFAT-GFP reporter cells expressing bovine Mincle
Assay type: cell-based
Details: 96-well plate, 0.03 to 3 nmol; Fig. 1 (right)
Method: Similarly, using NFAT-GFP reporter cells expressing bovine Mincle, prepared according to the method described in a literature (Yamasaki, S. et al, Nat Immunol 9, 1179-88(2008)), the ligand activity of HD-276 was evaluated on a 96-well plate. The doses of the test compounds (horizontal axis) were 0.03 to 3 (nmol) from the left to right.

**Q.** `CCCCCCc1ccc(O[C@@H]2O[C@@H](C)[C@H](O)[C@@H](OC)[C@H]2O[C@@H]2O[C@@H](C)[C@H](O[C@@H]3O[C@H](COC)[C@@H](O)[C@H](O)[C@H]3O)[C@@H](OC)[C@H]2OC)cc1` [HD-276] was tested. Which “Mincle ligand activity (reporter activity)” value did it give?
**A.** confirmed to have Mincle ligand activity
